By Kd is commonly meant the equilibrium constant for the complex coming apart.

The record followed here is US7642058B2, “Method and apparatus for characterization of interactions” (GE Healthcare Bio-Sciences AB, priority 2003, dated 2010).

The target of experiment [1] is anti-maltose antibody. The experiment in a line: Pulse injection SPR steady state affinity, maltose on immobilized anti-maltose antibody. The settings on record: read-out: average KD; pulse injection method, 25° C., initial concentrations 0.05 and 0.1 mM.
Method: Roughly the same amount of another antibody, anti-AFP, was immobilized in a reference flowcell in order to minimise errors in reference subtraction due to the high immobilization level. These two proteins were immobilized using the “amine coupling” procedure as follows: HBS-EP was used as running buffer with a constant flow rate of 5 μl/min. After activation for 12 min. with EDC, target (anti-maltose or anti-AFP, 50 μg/ml in 10 mM sodium acetate, pH 5.0) was injected for 7 min., followed by a 12-min. deactivation. Immobilization and all measurements on the surface were performed at 25° C.
Samples of different initial concentrations (0.05 and 0.1 mM) were injected over the surface. The association and dissociation phases of each pulse were 12 seconds. […] Each experiment started with a blank run, i.e., a series of pulses of running buffer alone. The concentration of the first pulse, C1, was assumed to be equal to the concentration in the vial. […]
Response levels were obtained by taking the average of 10 data points at equilibrium. […] The constant multi-concentration pulse series were evaluated with a non-linearly fitted Req versus C plot, whereby KA, KD and Rmax values were obtained directly from the software.
Experiment [2] deals with anti-maltose antibody. The experiment in a line: Conventional SPR affinity assay, maltose on immobilized anti-maltose antibody. In kind it is binding. The following applies: 12 injections 0 to 1500 μM, 25° C. The method, then: In order to compare the results obtained with pulse injections to results obtained with the conventional method, 12 maltose injections of concentrations ranging from 0 to 1500 μM were performed. The injection time was 15 sec. Data was evaluated from a Req versus C plot using the BIAevaluation software.

In another experiment the target is HSA (Homo sapiens, UniProt P02768).
Sequence of HSA (P02768 25-609 limits assumed): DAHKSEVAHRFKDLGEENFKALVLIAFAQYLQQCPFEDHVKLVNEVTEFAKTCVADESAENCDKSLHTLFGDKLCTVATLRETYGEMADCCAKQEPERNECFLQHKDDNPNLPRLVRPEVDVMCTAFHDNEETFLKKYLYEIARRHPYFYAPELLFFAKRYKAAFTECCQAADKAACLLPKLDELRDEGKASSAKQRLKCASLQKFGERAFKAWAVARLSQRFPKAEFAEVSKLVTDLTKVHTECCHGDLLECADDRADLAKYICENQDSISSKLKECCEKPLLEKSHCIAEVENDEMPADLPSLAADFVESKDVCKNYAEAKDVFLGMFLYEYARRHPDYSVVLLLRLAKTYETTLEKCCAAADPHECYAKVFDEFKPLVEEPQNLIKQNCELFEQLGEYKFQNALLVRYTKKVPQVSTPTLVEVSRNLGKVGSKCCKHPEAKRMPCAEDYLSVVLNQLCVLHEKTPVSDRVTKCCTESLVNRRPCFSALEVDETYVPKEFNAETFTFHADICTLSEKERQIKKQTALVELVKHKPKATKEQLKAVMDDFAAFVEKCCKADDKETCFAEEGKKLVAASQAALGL

Regarding `OC[C@H]1O[C@H](O[C@H]2[C@H](O)[C@@H](O)C(O)O[C@@H]2CO)[C@H](O)[C@@H](O)[C@@H]1O` (mixture of isomers) [maltose], the Kd on anti-maltose antibody [1] came out at 9 mM; at anti-maltose antibody [2], 8.5 mM.
Consider `C[C@H]1O[C@@H](O[C@H]2[C@@H](O)C[C@H](O[C@H]3[C@@H](O)C[C@H](O[C@H]4CC[C@@]5(C)[C@H](CC[C@@H]6[C@@H]5CC[C@]5(C)[C@@H](C7=CC(=O)OC7)CC[C@]65O)C4)O[C@@H]3C)O[C@@H]2C)C[C@H](O)[C@@H]1O` [Digitoxin, digitoxin], for which the “site competition on HSA, pair digitoxin and warfarin” value on HSA is listed as “non-competitive binders”.
